Data published in BindingDB's records for doi:10.1016/j.bmcl.2004.05.088 (Eli Lilly, 2004).
Structures can show the parent of a compound that is named as a salt.

How the values were obtained:
Test in all cases: CDK Kinase Inhibition Assay
[1] = molecular target: Cyclin-dependent kinase 4/G1/S-specific cyclin-D1 (Homo sapiens, UniProt P11802); settings: pH 7; 22 °C
Method: (§1) In vitro CDK assay using purified enzyme, was incubated at room temperature with substrate, and test compounds in the presence of ATP/[gamma-33P]ATP. 33P incorporation was measured with a Top Count (Packard). IC50 is the inhibitor concentration which inhibits 50% of kinase activity that catalyzes the transfer of the terminal phosphate from 33P labeled ATP to the substrate.

[2] = molecular target: Cyclin-dependent kinase 2/G1/S-specific cyclin-E1 (Homo sapiens, UniProt P24941); settings: 25 °C
Method: as §1

[3] = molecular target: cAMP-dependent protein kinase catalytic subunit alpha (Bos taurus, UniProt P00517); settings: 25 °C

Sequence of Cyclin-dependent kinase 4/G1/S-specific cyclin-D1 (P11802 whole entry): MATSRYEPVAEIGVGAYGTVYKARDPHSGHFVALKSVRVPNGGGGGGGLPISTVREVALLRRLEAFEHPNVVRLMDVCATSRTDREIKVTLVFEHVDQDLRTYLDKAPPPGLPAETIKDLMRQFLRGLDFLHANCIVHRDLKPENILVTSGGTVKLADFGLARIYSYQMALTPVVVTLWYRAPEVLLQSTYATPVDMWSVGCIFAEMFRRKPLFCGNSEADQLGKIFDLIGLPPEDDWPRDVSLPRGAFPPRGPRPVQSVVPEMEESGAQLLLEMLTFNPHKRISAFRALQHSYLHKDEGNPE
Sequence of Cyclin-dependent kinase 4/G1/S-specific cyclin-D1 (P24385 whole entry, further chain): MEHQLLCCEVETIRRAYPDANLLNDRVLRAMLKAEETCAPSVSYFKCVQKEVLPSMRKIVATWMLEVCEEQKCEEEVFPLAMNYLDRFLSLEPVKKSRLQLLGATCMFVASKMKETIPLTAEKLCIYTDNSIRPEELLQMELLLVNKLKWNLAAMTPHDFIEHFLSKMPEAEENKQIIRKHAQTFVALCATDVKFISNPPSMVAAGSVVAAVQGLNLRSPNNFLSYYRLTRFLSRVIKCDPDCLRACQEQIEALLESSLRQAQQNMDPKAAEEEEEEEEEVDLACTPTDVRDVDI

O=C1NC(=O)c2c1c1c3ccccc3[nH]c1c1c2c2cccc3c2n1CCNC3 [1,4,14,24-tetraazaheptacyclo[16.8.1.0^{2,17}.0^{3,11}.0^{5,10}.0^{12,16}.0^{22,27}]heptacosa-2(17),3(11),5(10),6,8,12(16),18(27),19,21-nonaene-13,15-dione hydrochloride]
IC50 [1]: 27 nM
IC50 [2]: 38 nM

O=C1NC(=O)c2c1c1c3ccccc3[nH]c1c1c2c2cccc3c2n1CCNCC3 [1,4,14,25-tetraazaheptacyclo[16.9.1.0^{2,17}.0^{3,11}.0^{5,10}.0^{12,16}.0^{22,28}]octacosa-2(17),3(11),5(10),6,8,12(16),18(28),19,21-nonaene-13,15-dione hydrochloride]
IC50 [1]: 160 nM

O=C1NC(=O)c2c1c1c3ccc(C(F)(F)F)c(CO)c3[nH]c1c1c2c2cccc3c2n1CCNC3 [6-(hydroxymethyl)-7-(trifluoromethyl)-1,4,14,24-tetraazaheptacyclo[16.8.1.0^{2,17}.0^{3,11}.0^{5,10}.0^{12,16}.0^{22,27}]heptacosa-2(17),3(11),5(10),6,8,12(16),18(27),19,21-nonaene-13,15-dione hydrochloride]
IC50 [1]: 44 nM

O=C1NC(=O)c2c1c1c3cc(F)c(F)cc3[nH]c1c1c2c2cccc3c2n1CCNC3 [7,8-difluoro-1,4,14,24-tetraazaheptacyclo[16.8.1.0^{2,17}.0^{3,11}.0^{5,10}.0^{12,16}.0^{22,27}]heptacosa-2(17),3(11),5(10),6,8,12(16),18(27),19,21-nonaene-13,15-dione hydrochloride]
IC50 [3]: > 2000 nM
IC50 [1]: 110 nM

O=C1NC(=O)c2c1c1c3ccc(C(F)(F)F)cc3[nH]c1c1c2c2cccc3c2n1CCNC3 [7-(trifluoromethyl)-1,4,14,24-tetraazaheptacyclo[16.8.1.0^{2,17}.0^{3,11}.0^{5,10}.0^{12,16}.0^{22,27}]heptacosa-2(17),3(11),5(10),6,8,12(16),18(27),19,21-nonaene-13,15-dione hydrochloride]
IC50 [3]: > 2000 nM
IC50 [1]: 69 nM

O=C1NC(=O)c2c1c1c3ccc(F)cc3[nH]c1c1c2c2cccc3c2n1CCNC3 [7-fluoro-1,4,14,24-tetraazaheptacyclo[16.8.1.0^{2,17}.0^{3,11}.0^{5,10}.0^{12,16}.0^{22,27}]heptacosa-2(17),3(11),5(10),6,8,12(16),18(27),19,21-nonaene-13,15-dione hydrochloride]
IC50 [2]: 16 nM

O=C1NC(=O)c2c1c1c3cc(F)ccc3[nH]c1c1c2c2cccc3c2n1CCNC3 [8-fluoro-1,4,14,24-tetraazaheptacyclo[16.8.1.0^{2,17}.0^{3,11}.0^{5,10}.0^{12,16}.0^{22,27}]heptacosa-2(17),3(11),5(10),6,8,12(16),18(27),19,21-nonaene-13,15-dione hydrochloride]
IC50 [1]: 34 nM

NCC(=O)N1CCn2c3c(cccc3c3c4c(c5c6ccccc6[nH]c5c32)C(=O)NC4=O)C1 [24-(2-aminoacetyl)-1,4,14,24-tetraazaheptacyclo[16.8.1.0^{2,17}.0^{3,11}.0^{5,10}.0^{12,16}.0^{22,27}]heptacosa-2(17),3(11),5(10),6,8,12(16),18(27),19,21-nonaene-13,15-dione hydrochloride]
IC50 [3]: > 2000 nM
IC50 [1]: 100 nM

CC(C)N1CCn2c3c(cccc3c3c4c(c5c6ccccc6[nH]c5c32)C(=O)NC4=O)C1 [24-(propan-2-yl)-1,4,14,24-tetraazaheptacyclo[16.8.1.0^{2,17}.0^{3,11}.0^{5,10}.0^{12,16}.0^{22,27}]heptacosa-2(17),3(11),5(10),6,8,12(16),18(27),19,21-nonaene-13,15-dione]
IC50 [3]: > 2000 nM
IC50 [1]: 78 nM

Cn1cnc(S(=O)(=O)N2CCn3c4c(cccc4c4c5c(c6c7ccccc7[nH]c6c43)C(=O)NC5=O)C2)c1 [24-[(1-methyl-1H-imidazole-4-)sulfonyl]-1,4,14,24-tetraazaheptacyclo[16.8.1.0^{2,17}.0^{3,11}.0^{5,10}.0^{12,16}.0^{22,27}]heptacosa-2(17),3(11),5(10),6,8,12(16),18(27),19,21-nonaene-13,15-dione]
IC50 [3]: > 2000 nM
IC50 [1]: 120 nM

CS(=O)(=O)N1CCn2c3c(cccc3c3c4c(c5c6ccccc6[nH]c5c32)C(=O)NC4=O)C1 [24-methanesulfonyl-1,4,14,24-tetraazaheptacyclo[16.8.1.0^{2,17}.0^{3,11}.0^{5,10}.0^{12,16}.0^{22,27}]heptacosa-2(17),3(11),5(10),6,8,12(16),18(27),19,21-nonaene-13,15-dione]
IC50 [3]: > 2000 nM
IC50 [1]: 53 nM
